The structures appear in SMILES notation. In brackets after ≈: the same amount, converted by molar mass. Some results are limits rather than exact numbers.

The MIC is the lowest concentration that inhibits growth of the organism.

The assay has as its system Mycobacterium tuberculosis. The assay can be described thus: Antitubercular activity against isoniazid,streptomycin,rifampicin,ethambutol,para-aminosalicylate,prothionamide,capreomycin-resistant Mycobacterium tuberculosis 14862 assessed as bacterial growth inhibition. In kind it is functional.
Take `NNC(=O)c1ccncc1` [ISONIAZID]: the MIC was greater than 10 µg/mL.

In the case of `Cc1ccc(-n2nccc2NS(=O)(=O)c2ccc(N)cc2)cc1`, the MIC came out at 11.9 µg/mL (≈ 36.3 µM).

`Nc1ccc(S(=O)(=O)Nc2ccnn2-c2ccccc2)cc1` [SULFAPHENAZOLE]: the minimum inhibitory concentration (MIC) was 12.6 µg/mL (≈ 40 µM).

With `Nc1ccc(S(=O)(=O)Nc2ccnn2-c2ccc(F)cc2)cc1`, the MIC amounted to 10.9 µg/mL (≈ 32.7 µM).

Take `COc1ccc(-n2nccc2NS(=O)(=O)c2ccc(N)cc2)cc1`: the MIC was 10.6 µg/mL (≈ 30.8 µM).

Values taken from ChEMBL document CHEMBL4732257, “The optimization and characterization of functionalized sulfonamides derived from sulfaphenazole against Mycobacterium tuberculosis with reduced CYP 2C9 inhibition” (Bioorg Med Chem Lett, 2021).
